This is an account of results in US6455507B1, “Benzimidazole derivatives” (SmithKline Beecham Corporation, priority 1997, dated 2002).

One series has as its system HCMV strain AD169. Briefly: Human Cytomegalovirus Assay (HCMV DNA hybridization). Type of series: cell-based. Conditions: HCMV strain AD169 on MRC5 cell monolayers, 5 days incubation, antiviral effect from HCMV DNA by quantitative hybridization. As for the experimental part:
HCMV strain AD169 was grown on monolayers of human embryonic lung cells (MRC5 cells) in 96 well plates. After infection of the cells at a ratio of approximately 0.01 infectious virus particles per cell, the compounds to be tested were added to selected wells at six different concentrations, each in triplicate. The same concentrations of compound were also applied to wells containing monolayers of uninfected cells in order to assess compound cytotoxicity. The plates were incubated for 5 days, and the minimum cytotoxic dose was estimated from microscopic examination. The IC50 for antiviral effect was estimated from measurements of HCMV DNA in each well by blotting and quantitative specific DNA hybridization, similar to the method of Gadler (Antimicrob. Agents Chemother. 1983, 24, 370-374).

For orientation: melting point means the temperature, or range, at which the solid turns liquid. Compound `OC[C@@H]1OC[C@H](n2c(Br)nc3cc(Cl)c(Cl)cc32)[C@@H](O)[C@H]1O` [Example 42, (3S,4R,5R,6S)-2-Bromo-5,6-dichloro-1-(tetrahydro-4,5-dihydroxy-6-(hydroxymethyl)-2H-pyran-3-yl)-1H-benzimidazole] had a melting point of 207 to 208 °C.

Usually IC50 stands for the point on the concentration scale where inhibition reaches its midpoint. Low values mean greater potency in that assay, high ones weaker potency in that assay. Regarding `O[C@@H]1[C@H](O)[C@H](O)CO[C@H]1n1c(Br)nc2cc(Cl)c(Cl)cc21` [Example 2, 2-Bromo-5,6-dichloro-1-beta-D-ribopyranosyl-1H-benzimidazole], the melting point is 175 °C (dec.). The 50% inhibitory concentration (IC50) with HCMV strain AD169 (Human betaherpesvirus 5, 120 h) worked out at 0.7 µM.

On to `OC[C@H]1OC[C@@H](n2c(NC3CC3)nc3cc(Cl)c(Cl)cc32)[C@H](O)[C@@H]1O` [Example 41, (3R,4S ,5S ,6R)-5,6-Dichloro-2-(cyclopropylamino)-1-(tetrahydro-4,5-dihydroxy-6-(hydroxymethyl)-2H-pyran-3-yl)-1H-benzimidazole], for which the melting point is 244 °C (dec.).

Compound “2-Bromo-5,6-dichloro/4-fluoro-1-beta-D-ribopyranosyl-1H-benzimidazole [Example 24]” showed an IC50 in the series with HCMV strain AD169 of 0.9 µM.

For the compound `OC[C@@H]1OC[C@H](n2c(NC3CC3)nc3cc(Cl)c(Cl)cc32)[C@@H](O)[C@H]1O` [Example 43, (3S,4R,5R,6S)-5,6-Dichloro-2-(cyclopropylamino)-1-(tetrahydro-4,5-dihydroxy-6-(hydroxymethyl)-2H-pyran-3-yl)-1H-benzimidazole], the melting point was found to be 164 °C.

As to `OC[C@H]1OC[C@@H](n2c(Br)nc3cc(Cl)c(Cl)cc32)[C@H](O)[C@@H]1O` [Example 40, (3R,4S,5S,6R)-2-Bromo-5,6-dichloro-1-(tetrahydro-4,5-dihydroxy-6-(Hydroxymethyl)-2H-pyran-3-yl)-1H-benzimidazole], the melting point was 207 to 209 °C.

On to `CC(=O)O[C@@H]1[C@H](OC(C)=O)[C@H](OC(C)=O)CO[C@H]1n1c(Br)nc2cc(Cl)c(Cl)cc21` [Example 1, 2-Bromo-5,6-dichloro-1-(2,3,4-tri-O-acetyl-beta-D-ribopyranosyl)-1H-benzimidazole], for which the melting point was 100 to 110 °C. Also, 1 µM corresponded to half-maximal inhibition with HCMV strain AD169 (Human betaherpesvirus 5, 120 h) (IC50).

In turn, `O[C@H]1[C@H](O)[C@@H](n2c(Br)nc3cc(Cl)c(Cl)cc32)OC[C@@H]1O` [Example 57, 2-Bromo-5,6-dichloro-1-beta-L-xylopyranosyl-1H-benzimidazole] returned a melting point of 164 to 165 °C.

In turn, `O[C@@H]1CCCC[C@H]1n1c(Br)nc2cc(Cl)c(Cl)cc21` (racemic) [Example 45, (±)-trans-2-(2-Bromo-5,6-dichloro-1H-benzimidazol-1-yl)cyclohexanol] returned a melting point of 201 to 202 °C.

Take `O[C@@H]1CCCC[C@H]1n1c(NC2CC2)nc2cc(Cl)c(Cl)cc21` (racemic) [Example 46, (±)-trans-2-[5,6-Dichloro-2-(cyclopropylamino)-1H-benzimidazol-1-yl]cyclohexanol]: the melting point lay in the range of 149 to 151 °C.

Turning to `Cc1cc2nc(Br)n([C@@H]3OC[C@@H](O)[C@@H](O)[C@H]3O)c2cc1Cl` [Example 13, 2-Bromo-6-chloro-5-methyl-1-beta-D-ribopyranosyl-1H-benzimidazole], the melting point was 170 to 175 °C (dec.). This compound had a half-inhibitory concentration (IC50) in the series on HCMV strain AD169 (Human betaherpesvirus 5, 120 h) of 6 µM.

`CC(=O)O[C@@H]1[C@H](OC(C)=O)[C@@H](n2c(Br)nc3cc(Cl)c(Cl)cc32)OC[C@@H]1OC(C)=O` [Example 4, 2-Bromo-5,6-dichloro-1-(2,3,4-tri-O-acetyl-beta-L-ribopyranosyl)-1H-benzimidazole] came in with a melting point of 110 °C.

In turn, `OC[C@@H]1OC[C@H](n2c(NC3CC3)nc3cc(Cl)c(Cl)cc32)C[C@H]1O` [Example 39, (3R,5R,6S)-5,6-Dichloro-2-(cyclopropylamino)-1-(tetrahydro-5-hydroxy-6-(hydroxymethyl)2H-pyran-3-yl)-1H-benzimidazole] had a melting point of 98 to 99 °C.

The compound `CC(C)Nc1nc2cc(Cl)c(Cl)cc2n1[C@@H]1OC[C@@H](O)[C@@H](O)[C@H]1O` [Example 3, 5,6-Dichloro-N-1(1-methylethyl)-1-beta-D-ribopyranosyl-1H-benzimidazole-2-amine] came in with a concentration for half-maximal inhibition (IC50) with HCMV strain AD169 of 22 µM.
